# Laboratory results: patent US20240173432A1, “Compositions and Methods for Treatment of Myotonic Dystrophy Type 1 with CRISPR/SluCas9” (Vertex Pharmaceuticals Incorporated, priority 2021, published 2024)
# Columns and labels:
# [1] = test system: CUG foci in primary DM1 patient myoblasts; assay: Single-cut screening: FISH staining of CUG RNA foci; format: cell-based, human; settings: single sgRNA, primary DM1 patient myoblasts; for % of CUG foci free nuclei (DNA-PKi): DNA-PKi treated
# Summary of the method: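 CD56-purified primary DM1 patient myoblasts nucleofected with SluCas9:sgRNA RNP (30:90 pmol, single-cut), then DMSO or 3 μM DNA-PK inhibitor for 48 h. At 72 h post-nucleofection, cells fixed and stained for CUG foci with Cy3-PNA(CAG)5 probe (1 ng/μL, 80 °C), co-stained for MBNL1 and Hoechst, imaged by high-content confocal microscopy.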
# [2] = test system: 3′ UTR of the human DMPK gene; assay: Single-cut screening: indel editing efficiency by Sanger sequencing and ICE analysis in primary DM1 patient myoblasts; format: cell-based; settings: vehicle-treated samples; for Indel efficiency: single SluCas9 sgRNA RNP in primary DM1 patient myoblasts, Sanger sequencing and ICE analysis; for indel efficiency (Sanger sequencing and ICE analysis): single-cut, SluCas9 RNP, 72 hrs post nucleofection, wild-type allele
# Summary of the method: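 Indels were estimated by ICE from Sanger chromatograms of PCR amplicons covering the DMPK 3′ UTR wild-type allele, using only vehicle-treated samples; sgRNAs with R2<0.9 are flagged. Samples came from primary DM1 patient myoblasts (2 × 10^5) harvested 72 h after nucleofection with 30 pmol SluCas9 and 90 pmol single sgRNA RNP.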
# [3] = test system: CAG foci in primary DM1 patient myoblasts; assay: Single-cut screening: CAG foci staining; format: cell-based, human; settings: single sgRNA; for % of CAG foci positive nuclei (DNA-PKi): DNA-PKi treated
# Summary of the method: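 Primary DM1 patient myoblasts were PFA-fixed and hybridized with […] (1 ng/μL, 15 min at 80° C) in 30% formamide/2×SSC, followed by anti-MBNL1 immunostaining and Hoechst counterstain. CAG RNA foci were quantified by high-content confocal imaging after single-cut SuCas9 sgRNA editing.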
Substance,% of CUG foci free nuclei (DNA-PKi) [1] [%],% of CUG foci free nuclei (Vehicle) [1] [%],Indel efficiency [2] [%],% of CAG foci positive nuclei (DNA-PKi) [3] [%],% of CAG foci positive nuclei (Vehicle) [3] [%],indel efficiency (Sanger sequencing and ICE analysis) [2]
CCTGCAGTTTGCCCATCCACGT (guide RNA; chemistry not fully specified) [SluD11],52.55,14.54,16,2.22,1.7,
"CCTGTAGCCTGTCAGCGAGTCG (listed as DNA, chemistry not fully specified) [SluD68]",25.13,12.88,72,1.94,2.3,high editing IN4DEL efficiency
CGAGAGCAGCGCAAGTGAGGAG (guide RNA; chemistry not fully specified) [SluD49],37.77,12.39,41,2.3,2.83,
CGAGGGTCGGGGGTGGGGGTCC (guide RNA; chemistry not fully specified) [SluD88],31.95,11.11,7,2.42,1.4,
CGCCCAGCTCCAGTCCTGTGAT (guide RNA; chemistry not fully specified) [SluU27],38.24,7.71,1,1.94,1.64,
"CGCCCCCTAGCggccggggagg (guide RNA; as printed in the source, key not given here) [SluU41]",47.52,13.34,13,1.08,0.74,
CGCCGAAGCGGGCGGAGCCGGC (guide RNA; chemistry not fully specified) [SluD58],31.45,18.03,33,1.96,1.37,
"CGCGCCAGACGCTCCCCAGAGC (listed as DNA, chemistry not fully specified) [SluD34]",31.92,15,71,2.01,3.9,high editing IN4DEL efficiency
CGGAGCGGTTGTGAACTGGCAG (guide RNA; chemistry not fully specified) [SluU20],49.95,18.45,30,1.43,1.15,
CGGATCACAGGACTGGAGCTGG (guide RNA; chemistry not fully specified) [SluU29],48.49,27.28,67,1.82,1.18,
CGGCTCCGCCCGCTTCGGCGGT (guide RNA; chemistry not fully specified) [SluD60],16.87,6.71,0,1.16,1.02,
CGTGGATGGGCAAACTGCAGGC (guide RNA; chemistry not fully specified) [SluD12],23.77,17.76,44,1.21,4.65,
"CTAGCggccggggagggagggg (guide RNA; as printed in the source, key not given here) [SluU47]",12.71,5.91,0,2.4,1,
CTCAGTGCATCCAAAACGTGGA (guide RNA; chemistry not fully specified) [SluD77],28.94,14.94,17,3.13,1.8,
CTCCACGCACCCCCACCTATCG (guide RNA; chemistry not fully specified) [SluD22],20.98,7.86,21,1.54,0.76,
CTCCGAGAGCAGCGCAAGTGAG (guide RNA; chemistry not fully specified) [SluD52],26.8,7.59,6,1.57,1.26,
CTGCAGTTTGCCCATCCACGTC (guide RNA; chemistry not fully specified) [SluD10],27.41,13.43,18,1.26,2.84,
"CTTCGAgccccgttcgccggcc (guide RNA; as printed in the source, key not given here) [SluU61]",49.57,17.78,14,1.46,0.9,
"CTTGTGCATGACGCCCTGCTCT (listed as DNA, chemistry not fully specified) [SluD32]",26.23,19.22,94,1.31,1.43,high editing IN4DEL efficiency
CTTTGCGAACCAACGATAGGTG (guide RNA; chemistry not fully specified) [SluD25],32.03,26.87,41,1.35,2.62,
CTTTTATTCGCGAGGGTCGGGG (guide RNA; chemistry not fully specified) [SluD93],26.14,11.34,18,3.58,1.63,
CTTTTGCCAAACCCGCTTTTTC (guide RNA; chemistry not fully specified) [SluD41],37.15,8.97,6,1.44,1.33,
GACAATAAATACCGAGGAATGT (guide RNA; chemistry not fully specified) [SluD81],28.66,9.64,10,1.75,1.54,
GACGCCCTGCTCTGGGGAGCGT (guide RNA; chemistry not fully specified) [SluD33],33.92,12.72,74,1.76,4.78,
"GAGAGCAGCGCAAGTGAGGAGG (listed as DNA, chemistry not fully specified) [SluD48]",25.41,13.31,60,2.91,2.3,high editing IN4DEL efficiency
GAGGGCCTTTTATTCGCGAGGG (guide RNA; chemistry not fully specified) [SluD97],39.95,16.07,11,2.01,1.19,
GATAGGTGGGGGTGCGTGGAGG (guide RNA; chemistry not fully specified) [SluD21],32.15,9.96,36,1.77,1.95,
